The record followed here is patent US8741875B2, “Compounds as receptor modulators with therapeutic utility” (Allergan, Inc., priority 2009, dated 2014).

The target of the test is T1, human S1P1 receptor (Homo sapiens, UniProt P21453).
T1 construct: expressed in transfected cells; membranes used
As to the kind of experiment: GTP γ35S binding assay for S1P1 activity. The test is classed as biochemical. The note with it: membranes, 30 min at 25° C., read-out: S1P1 EC50 (Activity potency: S1P1 receptor from GTP γ35S). How it is done:
Compounds were tested for S1P1 activity using the GTP γ^35S binding assay. These compounds may be assessed for their ability to activate or block activation of the human S1P1 receptor in cells stably expressing the S1P1 receptor.
GTP γ^35S binding was measured in the medium containing (mM) HEPES 25, pH 7.4, MgCl2 10, NaCl 100, dithitothreitol 0.5, digitonin 0.003%, 0.2 nM GTP γ^35S, and 5 μg membrane protein in a volume of 150 μl. Test compounds were included in the concentration range from 0.08 to 5,000 nM unless indicated otherwise. Membranes were incubated with 100 μM 5′-adenylylimmidodiphosphate for 30 min, and subsequently with 10 μM GDP for 10 min on ice. Drug solutions and membrane were mixed, and then reactions were initiated by adding GTP γ^35S and continued for 30 min at 25° C. Reaction mixtures were filtered over Whatman GF/B filters under vacuum, and washed three times with 3 mL of ice-cold buffer (HEPES 25, pH7.4, MgCl2 10 and NaCl 100). Filters were dried and mixed with scintillant, and counted for ^35S activity using a β-counter. Agonist-induced GTP γ^35S binding was obtained by subtracting that in the absence of agonist. Binding data were analyzed using a non-linear regression method. In case of antagonist assay, the reaction mixture contained 10 nM S1P in the presence of test antagonist at concentrations ranging from 0.08 to 5000 nM.
In general terms: Binding of GTPγS marks nucleotide exchange on a G protein.

For orientation: pEC50 means −log10 of the EC50, conventionally taken in molar units.

pEC50: −log10 of the molar value.

T1 sequence (P21453 whole entry): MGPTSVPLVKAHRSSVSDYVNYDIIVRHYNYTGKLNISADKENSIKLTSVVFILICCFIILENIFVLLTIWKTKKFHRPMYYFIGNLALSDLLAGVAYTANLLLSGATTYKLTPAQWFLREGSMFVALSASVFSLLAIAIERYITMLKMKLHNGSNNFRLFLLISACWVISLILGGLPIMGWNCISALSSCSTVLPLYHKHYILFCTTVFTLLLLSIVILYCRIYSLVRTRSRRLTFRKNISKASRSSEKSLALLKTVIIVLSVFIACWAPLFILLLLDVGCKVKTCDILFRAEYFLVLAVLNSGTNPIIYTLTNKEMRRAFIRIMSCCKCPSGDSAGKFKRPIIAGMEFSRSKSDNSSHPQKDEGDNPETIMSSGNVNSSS

With `O=P(O)(O)CCCNCc1ccc(OCCCCCc2ccccc2)c(-c2ccco2)c1` [Compound 1, [3-({3-(2-furyl)-4-[(5-phenylpentyl)oxy]benzyl}amino)propyl]phosphonic acid], the pEC50 is 9.05.
Next, `O=P(O)(O)CCCNCc1ccc(OCCCCCc2ccccc2)c(-c2ncco2)c1` [Compound 2, [3-({3-(1,3-oxazol-2-yl)-4-[(5-phenylpentyl)oxy]benzyl}amino)propyl]phosphonic acid]: 7.92; `O=P(O)(O)CCCNCc1ccc(OCCCCCc2ccccc2)c(-c2nccs2)c1` [Compound 3, [3-({4-[(5-phenylpentyl)oxy]-3-(1,3-thiazol-2-yl)benzyl}amino)propyl]phosphonic acid]: 8.70.
Regarding `O=P(O)(O)CCCNCc1ccc(OCCCCCc2ccccc2)c(-c2ccoc2)c1` [Compound 4, [3-({3-(3-furyl)-4-[(5-phenylpentyl)oxy]benzyl}amino)propyl]phosphonic acid], the pEC50 was 9.22.
The same measure for `O=P(O)(O)CCCNCc1ccc(OCCCCCc2ccccc2)c(-c2ccsc2)c1` [Compound 5, [3-({4-[(5-phenylpentyl)oxy]-3-(3-thienyl)benzyl}amino)propyl]phosphonic acid]: 8.48.
As to `CC(C)Cc1ccc(CCCOc2ccc(CNCCCP(=O)(O)O)cc2-c2cccs2)cc1` [Compound 7, [3-({4-[3-(4-isobutylphenyl)propoxy]-3-(2-thienyl)benzyl}amino)propyl]phosphonic acid], the negative logarithm of the EC50 (pEC50) was 7.83.
The same measure for `O=P(O)(O)CCCNCc1ccc(OCCCCCc2ccccc2)c(C2=CCCC2)c1` [Compound 8, [3-({3-cyclopent-1-en-1-yl-4-[(5-phenylpentyl)oxy]benzyl}amino)propyl]phosphonic acid]: 8.47; for `O=P(O)(O)OCCNCc1ccc(OCCCCCc2ccccc2)c(-c2cccs2)c1` [Compound 9, 2-({4-[(5-phenylpentyl)oxy]-3-(2-thienyl)benzyl}amino)ethyl dihydrogen phosphate]: 8.82; for `O=S(=O)(O)CCCNCc1ccc(OCCCCCc2ccccc2)c(-c2cccs2)c1` [Compound 10, 3-({4-[(5-phenylpentyl)oxy]-3-(2-thienyl)benzyl}amino)propane-1-sulfonic acid]: 8.00.
The same measure for `CP(=O)(O)CCCNCc1ccc(OCCCCCc2ccccc2)c(-c2cccs2)c1` [Compound 11, methyl[3-({4-[(5-phenylpentyl)oxy]-3-(2-thienyl)benzyl}amino)propyl]phosphinic acid]: 7.64; for `CC(CO)NCc1ccc(OCCCCCc2ccccc2)c(-c2cccs2)c1` (centres unmarked) [Compound 12, 2-({4-[(5-phenylpentyl)oxy]-3-(2-thienyl)benzyl}amino)propan-1-ol]: 6.62; for `OCC(CO)NCc1ccc(OCCCCCc2ccccc2)c(-c2cccs2)c1` [Compound 13, 2-({4-[(5-phenylpentyl)oxy]-3-(2-thienyl)benzyl}amino)propane-1,3-diol]: 6.15.
Next, `O=P(O)(O)CCCNCc1ccc(OCCCCCc2ccccc2)c(-c2ccoc2)n1` [Compound 14, {3-[({6-(3-furyl)-5-[(5-phenylpentyl)oxy]pyridin-2-yl}methyl)amino]propyl}phosphonic acid]: 9.00.
Consider `O=P(O)(O)CCCNCc1ccc(OCCCCCc2ccccc2)c(-c2cccs2)n1` [Compound 15, {3-[({5-[(5-phenylpentyl)oxy]-6-(2-thienyl)pyridin-2-yl}methyl)amino]propyl}phosphonic acid], for which the negative-log EC50 (pEC50) is 9.11.
The same measure for `CCCCCCCCCOc1ccc(CNCCCP(=O)(O)O)cc1-c1cccs1` [Compound 16, (3-{[4-(nonyloxy)-3-(2-thienyl)benzyl]amino}propyl)phosphonic acid]: 6.29; for `CCCCCCCCCCOc1ccc(CNCCCP(=O)(O)O)cc1-c1cccs1` [Compound 17, (3-{[4-(decyloxy)-3-(2-thienyl)benzyl]amino}propyl)phosphonic acid]: 6.53.
Consider `O=P(O)(O)CCCNCc1ccc(OCCCCCc2ccccc2)c(-c2ccc(F)s2)c1` [Compound 18], for which the pEC50 is 8.70.
The same measure for `COc1cccc(CCCCCOc2ccc(CNCCCP(=O)(O)O)cc2-c2cccs2)c1` [Compound 19, (3-{[4-{[5-(3-methoxyphenyl)pentyl]oxy}-3-(2-thienyl)benzyl]amino}propyl)phosphonic acid]: 5.95.
The same measure for `COc1ccc(CCCCCOc2ccc(CNCCCP(=O)(O)O)cc2-c2cccs2)cc1` [Compound 20, (3-{[4-{[5-(4-methoxyphenyl)pentyl]oxy}-3-(2-thienyl)benzyl]amino}propyl)phosphonic acid]: 7.31.
Turning to `O=P(O)(O)CCCNCc1ccc(OCCCCCc2ccc(F)cc2)c(-c2cccs2)c1` [Compound 21, (3-{[4-{[5-(4-fluorophenyl)pentyl]oxy}-3-(2-thienyl)benzyl]amino}propyl)phosphonic acid], the pEC50 is 7.71.
In the case of `O=P(O)(O)CCCNCc1ccc(OCCCCCc2cccc(C(F)(F)F)c2)c(-c2ccco2)c1` [Compound 22, (3-{[3-(2-furyl)-4-({5-[3-(trifluoromethyl)phenyl]pentyl}oxy)benzyl]amino}propyl)phosphonic acid], the pEC50 is 7.18.
The same measure for `COc1cccc(CCCCCOc2ccc(CNCCCP(=O)(O)O)cc2-c2ccco2)c1` [Compound 23, (3-{[3-(2-furyl)-4-{[5-(3-methoxyphenyl)pentyl]oxy}benzyl]amino}propyl)phosphonic acid]: 6.62; for `O=P(O)(O)CCCNCc1ccc(OCCCCCc2ccc(F)cc2)c(-c2ccco2)c1` [Compound 24, (3-{[4-{[5-(4-fluorophenyl)pentyl]oxy}-3-(2-furyl)benzyl]amino}propyl)phosphonic acid]: 9.01.
The same measure for `O=P(O)(O)CCCNCc1ccc(OCCCCc2ccc(F)cc2)c(-c2cccs2)c1` [Compound 25, [3-({4-[4-(4-fluorophenyl)butoxy]-3-(2-thienyl)benzyl}amino)propyl]phosphonic acid]: 7.17.
Next, `O=P(O)(O)CCCNCc1ccc(OCCCCc2ccc(F)cc2)c(-c2ccco2)c1` [Compound 26, [3-({4-[4-(4-fluorophenyl)butoxy]-3-(2-furyl)benzyl}amino)propyl]phosphonic acid]: 7.00; `COc1ccc(CCCCCOc2ccc(CNCCCP(=O)(O)O)cc2-c2ccco2)cc1F` [Compound 27, (3-{[4-{[5-(3-fluoro-4-methoxyphenyl)pentyl]oxy}-3-(2-furyl)benzyl]amino}propyl)phosphonic acid]: 8.15.
Take `COc1ccc(CCCCCOc2ccc(CNCCCP(=O)(O)O)cc2-c2cccs2)cc1F` [Compound 28, (3-{[4-{[5-(3-fluoro-4-methoxyphenyl)pentyl]oxy}-3-(2-thienyl)benzyl]amino}propyl)phosphonic acid]: the pEC50 was 8.72.
Take `O=P(O)(O)CCCNCc1ccc(OCCCCCc2ccc(Cl)cc2)c(-c2ccco2)c1` [Compound 29, (3-{[4-{[5-(4-chlorophenyl)pentyl]oxy}-3-(2-furyl)benzyl]amino}propyl)phosphonic acid]: the pEC50 was 8.24.
The same measure for `O=P(O)(O)CCCNCc1ccc(OCCCCCc2ccc(Cl)cc2)c(-c2cccs2)c1` [Compound 30, (3-{[4-{[5-(4-chlorophenyl)pentyl]oxy}-3-(2-thienyl)benzyl]amino}propyl)phosphonic acid]: 8.10.
